Laboratory results published in patent US9028856B2, “Synergistic pesticide compositions” (priority 2008, dated 2015).
Read-outs that look alike come from different tables or passages of the source.

Assays:
[1] = test system: Culex quinquefasciatus mosquito; assay: USDA Petri Dish Method, 3 min exposure to dipped fiberglass window screen; assay type: in vivo; details: Table 29, aqueous deltamethrin/adjuvant
Procedure: MATERIALS AND METHODS: Aqueous solutions of 1% deltamethrin with and without adjuvant were prepared using product sold under the tradename Suspend® SC. […] Pre-cut fiberglass screen (5″×5″, or 161.3 cm^2) were dipped in each treatment solution and excessive solution was allowed to drain completely. Weight of the solution coated on the screen was then determined. The treated screen was then allowed to air-dry overnight. USDA Petri Dish Method was used as initial screening protocol. Twenty, 4-6 day old female Culex quinquefasciatus were exposed to treated window screen for 3 minutes and then moved onto a clean untreated white paper index card. Treatments were replicated a minimum of three times. Mosquito knockdown was evaluated at 3 minute intervals for the first 15 minutes and then at 5 minute intervals for the remainder of an hour. A small cotton ball soaked in sucrose solution was added on the screen top of the petri-dish as a drinking source. Mortality was evaluated at 24 hours after exposure.

[2] = test system: bait averse/resistant German cockroach (IHOP strain), Blattella germanica; assay: Knockdown/mortality of male cockroaches under continuous exposure on treated glazed tile; assay type: in vivo; details: Table 28, aqueous deltamethrin/adjuvant, IHOP strain
Procedure: Treatments were allowed to dry overnight. […] Treatments were replicated a minimum of three times. Evaluations for cockroach knockdown/mortality were made at various intervals for 1 hour and at 24 hours after exposure.
Treatments were allowed to dry overnight. […] Evaluations for cockroach knockdown/mortality were made at various intervals and at 60 minutes after exposure.
Treatments were allowed to dry overnight. […] Treatments were replicated a minimum of three times.

[3] = test system: bedbug (Cimex lectularius), susceptible strain; assay: Contact efficacy against bedbugs on filter papers in glass dishes; assay type: in vivo
Procedure: Adult Cimex lectularius, susceptible strain, were used. A solution of the active ingredient in acetone was prepared. In the same mode a complete […]. All these works were done under drawing off conditions. After evaporation of the acetone (30′) the dishes were closed by a glass lid and transferred into the test room.
One day later ten bedbugs, anaesthetized with CO2, were counted into each dish. At regular intervals, knock down was recorded (cumulatively).
The same methodology was used as was used in Example 105.

[4] = test system: Blattella germanica, susceptible strain; assay: Contact efficacy against cockroaches on glazed tiles (acetone solutions); assay type: in vivo; details: mean of three replicates; for mortality at 60 mg/m2: imidacloprid 0.1%, 60 mg/m^2, glazed tile; for mortality at 310 mg/m2: imidacloprid 0.5%, 310 mg/m^2, glazed tile; for mortality at 620 mg/m2: imidacloprid 1%, 620 mg/m^2, glazed tile
Procedure: Male Blattella germanica, susceptible strain, were used. A solution of the active ingredient in acetone pipetted onto the corresponding tile on an area of 12.5 cm×12.5 cm.
One day later, a glass ring (diameter 9.5 cm, height 5.5 cm) inner wall treated with talcum was placed on the tile and five male German cockroaches were introduced. Knock down and mortality, respectively, were evaluated after 30′, 1 h, 3 h and 1 d. A water soaked cotton pad was added after 3 hours.
Each trial consisted of three replicates of which the mean values are calculated.

[5] = test system: bait averse/resistant German cockroach (T-164 strain); assay: Knockdown/mortality of male cockroaches under continuous exposure on treated glazed tile; assay type: in vivo, Blattella germanica; design: Average % Knockdown & Mortality after 5 hr / Average % Knockdown & Mortality after 30 min: concentration or dose not given beside the values; details: glazed tile
[6] = 0.0000128% Deltamethrin in acetone, first test
[7] = 0.0000128% Deltamethrin in acetone, second test
[8] = 0.000064% Deltamethrin in acetone, first test
[9] = 0.000064% Deltamethrin in acetone, second test
[10] = 0.5 h, read-out: Average % knockdown & mortality after 30 min
[11] = 1 h, read-out: Average % knockdown & mortality after 60 min
[12] = 3 h, read-out: Average % knockdown & mortality after 3 hr
[13] = 24 h, read-out: Average % knockdown & mortality after 24 hr
[14] = 0.00032% imidacloprid (1 mg/m^2) in acetone, filter papers, Table 105
[15] = 0.0016% Imidacloprid in acetone, first test
[16] = 0.0016% Imidacloprid in acetone, second test
[17] = 0.0016% imidacloprid (6 mg/m^2) in acetone, filter papers, Table 105
[18] = 0.008% Imidacloprid in acetone, first test
[19] = 0.008% Imidacloprid in acetone, second test

For `CC1(C)[C@H](C(=O)O[C@H](C#N)c2cccc(Oc3ccccc3)c2)[C@@H]1C=C(Br)Br` [deltamethrin (1%)], the “Average % Knockdown & Mortality after 15 min” value ([1]; 15 min) was 0%, the “Average % Knockdown & Mortality after 30 min” value ([1]; 30 min) was 2% and the “Average % Knockdown & Mortality after 45 min” value ([1]; 45 min) was 3%. The “Average % Knockdown & Mortality after 60 min” value ([1]; 60 min) was 8%, the “Average % Knockdown & Mortality after 4 hr” value ([1]; 4 hr) was 52% and the “Average % Knockdown & Mortality after 24 hr” value ([1]; 24 hr) was 86%. For the same compound, the “Average % Mortality after 10 min” value ([2]; 10 min) was 20%, the “Average % Mortality after 30 min” value ([2]; 30 min) was 93% and the “Average % Mortality after 60 min” value ([2]; 60 min) was 100%. For the same compound, the “Average % Mortality after 24 hr” value ([2]; 24 hr) was 100%.

For `CC1(C)[C@H](C(=O)O[C@H](C#N)c2cccc(Oc3ccccc3)c2)[C@@H]1C=C(Br)Br` [deltamethrin], the “% knock down or moribund after 1 h” value [3, 6] was 0%, the “% knock down or moribund after 2 h” value [3, 6] was 0% and the “% knock down or moribund after 4 h” value [3, 6] was 0%. For the same compound, the “% knock down or moribund after 6 h” value [3, 6] was 0%, the “% knock down or moribund after 1 d” value [3, 6] was 20% and the “% knock down or moribund after 2 d” value [3, 6] was 20%. For the same compound, the “% knock down or moribund after 6 d” value [3, 6] was 20%, the “% knock down or moribund after 1 h” value [3, 7] was 0% and the “% knock down or moribund after 2 h” value [3, 7] was 0%. For the same compound, the “% knock down or moribund after 4 h” value [3, 7] was 0%, the “% knock down or moribund after 6 h” value [3, 7] was 0% and the “% knock down or moribund after 1 d” value [3, 7] was 10%. For the same compound, the “% knock down or moribund after 2 d” value [3, 7] was 10%, the “% knock down or moribund after 6 d” value [3, 7] was 40% and the “% knock down or moribund after 1 h” value [3, 8] was 20%. For the same compound, the “% knock down or moribund after 2 h” value [3, 8] was 20%, the “% knock down or moribund after 4 h” value [3, 8] was 70% and the “% knock down or moribund after 6 h” value [3, 8] was 70%. The “% knock down or moribund after 1 d” value [3, 8] was 70%, the “% knock down or moribund after 2 d” value [3, 8] was 80% and the “% knock down or moribund after 6 d” value [3, 8] was 100%. For the same compound, the “% knock down or moribund after 1 h” value [3, 9] was 0%, the “% knock down or moribund after 2 h” value [3, 9] was 40% and the “% knock down or moribund after 4 h” value [3, 9] was 40%. The “% knock down or moribund after 6 h” value [3, 9] was 40%, the “% knock down or moribund after 1 d” value [3, 9] was 40% and the “% knock down or moribund after 2 d” value [3, 9] was 60%. The “% knock down or moribund after 6 d” value [3, 9] was 60%.

Compound `O=[N+]([O-])NC1=NCCN1Cc1ccc(Cl)nc1` [imidacloprid] has a mortality at 60 mg/m2 [4, 10] of 0%, a mortality at 310 mg/m2 [4, 10] of 0% and a mortality at 620 mg/m2 [4, 10] of 0%. It also gave a mortality at 60 mg/m2 [4, 11] of 0%, a mortality at 310 mg/m2 [4, 11] of 0% and a mortality at 620 mg/m2 [4, 11] of 0%. The mortality at 60 mg/m2 [4, 12] was 20%, the mortality at 310 mg/m2 [4, 12] was 0% and the mortality at 620 mg/m2 [4, 12] was 13%. The mortality at 60 mg/m2 [4, 13] was 40%, the mortality at 310 mg/m2 [4, 13] was 0% and the mortality at 620 mg/m2 [4, 13] was 40%. For the same compound, the “Average % Knockdown & Mortality after 45 min” value ([5]; 45 min, Table 24, imidacloprid/dibutyl sebacate (DBS) in acetone, T-164 strain) was 0%, the “Average % Knockdown & Mortality after 3 hr” value ([5]; 3 hr, Table 23, imidacloprid/tritylchloride in acetone, T-164 strain) was 7% and the “Average % Knockdown & Mortality after 15 min” value ([5]; Table 5 (Ex. 2), continuous exposure) was 0%. The “Average % Knockdown & Mortality after 15 min” value ([5]; Table 6 (Ex. 3), continuous exposure) was 0%, the “Average % Knockdown & Mortality after 15 min” value ([5]; Table 9 (Ex. 6), continuous exposure) was 0% and the “Average % Knockdown & Mortality after 15 min” value ([5]; Table 11 (Ex. 8), continuous exposure) was 0%. For the same compound, the “Average % Knockdown & Mortality after 4 hr” value ([5]; Table 13 (Ex. 10), continuous exposure) was 0%, the “Average % Knockdown & Mortality after 4 hr” value ([5]; Table 15 (Ex. 12), continuous exposure) was 20% and the “Average % Knockdown & Mortality after 5 hr” value ([5]; Table 17 (Ex. 14), continuous exposure) was 19%. For the same compound, the “Average % Knockdown & Mortality after 4 hr” value ([5]; Table 18 (Ex. 15), continuous exposure) was 47%, the “Average % Knockdown & Mortality after 3 hr” value ([5]; Table 21 (Ex. 18), continuous exposure) was 7% and the “% knock down or moribund after 1 h” value [3, 14] was 0%. For the same compound, the “% knock down or moribund after 2 h” value [3, 14] was 0%, the “% knock down or moribund after 4 h” value [3, 14] was 0% and the “% knock down or moribund after 6 h” value [3, 14] was 0%. The “% knock down or moribund after 1 d” value [3, 14] was 0%, the “% knock down or moribund after 2 d” value [3, 14] was 0% and the “% knock down or moribund after 6 d” value [3, 14] was 0%. For the same compound, the “% knock down or moribund after 1 h” value [3, 15] was 0%, the “% knock down or moribund after 2 h” value [3, 15] was 0% and the “% knock down or moribund after 4 h” value [3, 15] was 0%. For the same compound, the “% knock down or moribund after 6 h” value [3, 15] was 10%, the “% knock down or moribund after 1 d” value [3, 15] was 20% and the “% knock down or moribund after 2 d” value [3, 15] was 20%. For the same compound, the “% knock down or moribund after 6 d” value [3, 15] was 40%, the “% knock down or moribund after 1 h” value [3, 16] was 0% and the “% knock down or moribund after 2 h” value [3, 16] was 0%. For the same compound, the “% knock down or moribund after 4 h” value [3, 16] was 0%, the “% knock down or moribund after 6 h” value [3, 16] was 0% and the “% knock down or moribund after 1 d” value [3, 16] was 0%. For the same compound, the “% knock down or moribund after 2 d” value [3, 16] was 0%, the “% knock down or moribund after 6 d” value [3, 16] was 0% and the “% knock down or moribund after 1 h” value [3, 17] was 0%. The “% knock down or moribund after 2 h” value [3, 17] was 0%, the “% knock down or moribund after 4 h” value [3, 17] was 0% and the “% knock down or moribund after 6 h” value [3, 17] was 0%. The “% knock down or moribund after 1 d” value [3, 17] was 0%, the “% knock down or moribund after 2 d” value [3, 17] was 0% and the “% knock down or moribund after 6 d” value [3, 17] was 0%. The “% knock down or moribund after 1 h” value [3, 18] was 0%, the “% knock down or moribund after 2 h” value [3, 18] was 0% and the “% knock down or moribund after 4 h” value [3, 18] was 0%. The “% knock down or moribund after 6 h” value [3, 18] was 20%, the “% knock down or moribund after 1 d” value [3, 18] was 30% and the “% knock down or moribund after 2 d” value [3, 18] was 40%. For the same compound, the “% knock down or moribund after 6 d” value [3, 18] was 80%, the “% knock down or moribund after 1 h” value [3, 19] was 0% and the “% knock down or moribund after 2 h” value [3, 19] was 0%. For the same compound, the “% knock down or moribund after 4 h” value [3, 19] was 0%, the “% knock down or moribund after 6 h” value [3, 19] was 0% and the “% knock down or moribund after 1 d” value [3, 19] was 0%. For the same compound, the “% knock down or moribund after 2 d” value [3, 19] was 0%, the “% knock down or moribund after 6 d” value [3, 19] was 10% and the “efficacy after 6 days” value ([3]; Example 106, filter paper, concentrations in the label) was 0%.
